Measurements from patent US20230026163A1, “ANTICANCER COMPOUND AND MEDICAL USE THEREOF” (ASCENTAWITS PHARMACEUTICALS, LTD., priority 2019, published 2023).

Key:
[1] = test system: H460 non-small cell lung cancer; test: Cytotoxicity test of human tumor cell line in vitro (CTG, 72 hours); format: cell-based; details: for IC50: Homo sapiens, NCI-H460, H460, 72 hours exposure; for Anticancer activity compared to the compound of control 2: H460
Method: IC50 values were obtained by the following methods. The cancer cells were exposed to various concentrations of compounds for 72 hours. Following by washing steps, fresh medium was added to allow the growth of the cancer cells. The cancer cells were stained to obtain cell viability. Then, comparisons were made with the medium-only control.
Specifically, the exponentially growing cells were seeded in 96-well plates at a density of 2×10^3 cells/well, and 100 μL/well. The cells were incubated for 24 hours at 37° C., in 5% CO2, in 95% air, and 100% relative humidity. Next, 99 μL of culture medium was added. The compounds were dissolved in 100% DMSO at 200 times the desired final test concentration. Upon addition of compounds, the compounds were further diluted to 4 times the desired final concentration with a complete medium. Aliquots of 1 μL of compounds at specific concentration were added to the micro-wells containing 199 μL of medium to obtain the final compound concentrations as reported. After the compounds were added, the plates were incubated for an addition 72 hours at 37° C., in 5% CO2, in 95% air, and 100% relative humidity.
The plates to be test containing the cells were equilibrated at room temperature for 30 minutes, and 100 μL of medium per well was discarded. 100 μL of CTG reagent (CelltiterGlo Kit) was added to each well. The plates were placed in a fast-shaker to shake for 2 minutes, and placed at room temperature for 30 minutes in the dark. Chemoluminescence signal values were read with Envision instrument.

P-glycoprotein = P-glycoprotein (Homo sapiens, UniProt P08183); test: in vitro; details: for Papp A→B at 2 h / Papp B→A at 2 h / recovery at 2 h: dog; for Papp A→B at 2 h / Papp B→A at 2 h: MDCK-MDR1; for P-glycoprotein substrate (experimental conclusion): with vs without Verapamil
P-glycoprotein, sequence (P08183 whole entry): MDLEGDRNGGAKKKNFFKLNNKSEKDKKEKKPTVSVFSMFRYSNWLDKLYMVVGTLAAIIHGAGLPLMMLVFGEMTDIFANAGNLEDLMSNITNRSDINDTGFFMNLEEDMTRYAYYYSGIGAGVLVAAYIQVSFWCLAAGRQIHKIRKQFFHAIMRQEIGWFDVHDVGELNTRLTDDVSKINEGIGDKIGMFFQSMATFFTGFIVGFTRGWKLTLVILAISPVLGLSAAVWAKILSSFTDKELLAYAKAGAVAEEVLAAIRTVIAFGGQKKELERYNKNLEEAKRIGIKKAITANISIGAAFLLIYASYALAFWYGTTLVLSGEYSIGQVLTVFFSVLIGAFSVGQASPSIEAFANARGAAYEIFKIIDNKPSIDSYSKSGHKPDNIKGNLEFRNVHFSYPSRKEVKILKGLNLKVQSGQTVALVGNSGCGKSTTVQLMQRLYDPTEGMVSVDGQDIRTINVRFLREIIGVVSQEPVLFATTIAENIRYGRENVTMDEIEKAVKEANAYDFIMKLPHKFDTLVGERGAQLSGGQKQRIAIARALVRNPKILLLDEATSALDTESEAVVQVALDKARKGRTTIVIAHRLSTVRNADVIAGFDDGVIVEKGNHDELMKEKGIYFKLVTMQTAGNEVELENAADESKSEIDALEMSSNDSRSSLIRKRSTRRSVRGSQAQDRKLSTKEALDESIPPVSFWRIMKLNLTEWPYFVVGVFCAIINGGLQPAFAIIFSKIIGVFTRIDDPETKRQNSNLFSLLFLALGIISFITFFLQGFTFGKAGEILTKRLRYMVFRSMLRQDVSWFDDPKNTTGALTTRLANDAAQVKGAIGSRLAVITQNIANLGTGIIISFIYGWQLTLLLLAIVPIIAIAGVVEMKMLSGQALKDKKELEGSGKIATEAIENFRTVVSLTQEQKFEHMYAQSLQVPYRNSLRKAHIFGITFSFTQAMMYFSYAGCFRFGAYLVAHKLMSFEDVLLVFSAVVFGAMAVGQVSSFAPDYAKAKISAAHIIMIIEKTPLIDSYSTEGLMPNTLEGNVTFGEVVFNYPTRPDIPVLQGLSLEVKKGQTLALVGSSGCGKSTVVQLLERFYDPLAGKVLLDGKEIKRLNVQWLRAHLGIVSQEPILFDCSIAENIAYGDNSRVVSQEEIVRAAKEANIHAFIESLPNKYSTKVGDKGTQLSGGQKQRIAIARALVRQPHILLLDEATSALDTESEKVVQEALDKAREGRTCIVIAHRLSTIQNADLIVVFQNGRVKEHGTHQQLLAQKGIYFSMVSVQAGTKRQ
Method: MDCKII-MDR1 cells were incubated in cell culture flasks. The incubator was set at 37° C., 5% CO2, and a guaranteed relative humidity of 95%. When the cells reached 70 to 90% confluence, the cells may be seeded to transwells.
50 μL of the cell suspensions were added to the apical chambers of each well of the 96-well transwells at a final seeding density of 5.45×10^5 cells/cm^2.
MDCKII-MDR1 cells may be fully confluent and differentiated after 4 to 8 days of incubation. At this time, the cells may be applied to penetration test. The monolayer membrane resistance was measured with a resistance meter (Millipore), and the resistance per well was recorded. After the test, the transwells were returned to the incubator.
The transwells with MDCKII-MDR1 cells were taken from the incubator. The cell monolayers were rinsed twice with buffer and incubated at 37° C. for 30 minutes.
The rate of the compounds from an apical end to a basolateral end was determined. 75 μL of the buffer containing the test sample was added to each well of the apical chambers (apical end), and 235 μL of the buffer was added to each well of the basolateral chambers (basolateral end).
The rate of the compounds transporting from the basolateral end to the apical end was determined. 75 μL of the buffer was added to the apical chambers (apical end), and 235 μL of the buffer containing the test sample was added to the basolateral chamber (basolateral end).
After the apical chambers and the basolateral chambers were combined respectively, the transwells were incubated at 37° C. for 2 hours.
After incubation, 50 μL of the sample from each well of the apical chambers and the basolateral chambers of the transwells was transferred to new sample tubes respectively. 200 μL of acetonitrile (100 nM of Alprazolam, 200 nM of Labetalol, 200 nM of caffeine, and 2 μM of Ketoprofen) as an internal standard was added to the sample tubes, vortexed for 10 minutes, and centrifuged at 3220 g for 30 minutes. 100 μL of the supernatant was taken and diluted with an equal volume of water for LC-MS/MS analysis. Each sample was incubated in triplicate.
Peak-areas were calculated from ion chromatography results. The apparent permeability coefficient (Papp, unit: cm/s×10-6) of the compounds was calculated by the following formula.
In the formula, VA was the volume of the solution at the acceptor end (Ap→B1 was 0.235 mL, and B1→Ap was 0.075 mL), Area was the membrane area (0.143 cm^2) of 96-well transwell, time was the incubation time (unit: s), [drug]acceptor referred to the drug concentration of the acceptor end after incubation, and [drug]initial,donor referred to the initial concentration of the donor end before incubation.
Efflux ratio was calculated with the following formula.
In the formula, Papp(B_A) was the apparent permeability coefficient from the basolateral end to the apical end, and Papp(A-B) was the apparent permeability coefficient from the apical end to the basolateral end.
The recovery rate was calculated with the following formula.
In the formula, VA was the solution volume of the acceptor end (unit: mL), VD was the solution volume of the donor end (unit: mL), [drug]acceptor referred to the drug concentration of the acceptor end after incubation, and [drug]initial,donor referred to the initial concentration of the donor end before incubation.

[2] = MDCK-MDR1, Recovery (%) AP-BL, Verapamil 0 μM
[3] = MDCK-MDR1, Recovery (%) AP-BL, Verapamil 100 μM
[4] = MDCK-MDR1, Recovery (%) BL-AP, Verapamil 0 μM
[5] = MDCK-MDR1, Recovery (%) BL-AP, Verapamil 100 μM

| SMILES | IC50 [1] | also measured |
| --- | --- | --- |
| O=[N+]([O-])c1ccc(C(OP(=O)(N2CC2)N2CC2)C(F)(F)F)c2cccnc12 (stereo not drawn) [Compound 19] | 0.311 µM |  |
| O=[N+]([O-])c1cc(COP(=O)(N2CC2)N2CC2)cc2ccccc12 [Compound 25] | 0.106 µM |  |
| O=[N+]([O-])c1ccc(COP(=O)(N2CC2)N2CC2)c2ccccc12 [Compound 02] | 0.755 µM |  |
| CC(OP(=O)(N1CC1)N1CC1)c1ccc2cccc([N+](=O)[O-])c2c1 (stereo not drawn) [Compound 07] | 0.168 µM |  |
| O=[N+]([O-])c1ccc(COP(=O)(N2CC2)N2CC2)c2cccnc12 [Compound 22] | 0.2 µM |  |
| CC(OP(=O)(N1CC1)N1CC1)c1ccc([N+](=O)[O-])c2cccnc12 (stereo not drawn) [Compound 12] | 0.0352 µM |  |
| O=[N+]([O-])c1cccc2c(C(OP(=O)(N3CC3)N3CC3)C(F)(F)F)cccc12 (stereo not drawn) [Compound 11] | 7.65 µM |  |
| O=[N+]([O-])c1ccc(COP(=O)(N2CC2)N2CC2)c2ncccc12 [Compound 20] | 0.0415 µM | Papp A→B at 2 h (P-glycoprotein): 33.7 ×10⁻⁶ cm/s; Papp B→A at 2 h (P-glycoprotein): 21.8 ×10⁻⁶ cm/s; recovery at 2 h (P-glycoprotein; [2]): 92.7%; recovery at 2 h (P-glycoprotein; [3]): 87.6%; recovery at 2 h (P-glycoprotein; [4]): 96.3%; recovery at 2 h (P-glycoprotein; [5]): 96.2%; P-glycoprotein substrate (experimental conclusion) (P-glycoprotein): not P-glycoprotein substrates |
| CC(OP(=O)(N1CC1)N1CC1)c1ccc([N+](=O)[O-])c2ncccc12 (stereo not drawn) [Compound 15] | 0.145 µM |  |
| O=[N+]([O-])c1ccc(C(OP(=O)(N2CC2)N2CC2)C(F)(F)F)c2ncccc12 (stereo not drawn) [Compound 16] | 0.0349 µM |  |
| O=[N+]([O-])c1cccc2cc(COP(=O)(N3CC3)N3CC3)ccc12 [Compound 24] | 0.478 µM |  |
| O=[N+]([O-])c1cccc2ccc(C(OP(=O)(N3CC3)N3CC3)C(F)(F)F)cc12 (stereo not drawn) [Compound 08] | 3.84 µM |  |
| O=[N+]([O-])c1cccc2ccc(COP(=O)(N3CC3)N3CC3)cc12 [Compound 06] | 0.172 µM |  |
| O=[N+]([O-])c1ccc(C(OP(=O)(N2CC2)N2CC2)C(F)(F)F)c2ccncc12 (stereo not drawn) [Compound 18] | 0.00788 µM |  |
| CC(OP(=O)(N1CC1)N1CC1)c1ccc([N+](=O)[O-])c2ccncc12 (stereo not drawn) [Compound 13] | 0.0129 µM |  |
| COCCc1ccc(OCC(O)CNC(C)C)cc1 (stereo not drawn) [Metoprolol, reference compound] |  | Papp A→B at 2 h (P-glycoprotein): 26 ×10⁻⁶ cm/s; Papp B→A at 2 h (P-glycoprotein): 18.9 ×10⁻⁶ cm/s |
| CC(OP(=O)(N1CC1)N1CC1)c1ccc([N+](=O)[O-])c2cnccc12 (stereo not drawn) [Compound 14] | 0.00382 µM | Papp A→B at 2 h (P-glycoprotein): 12.9 ×10⁻⁶ cm/s; Papp B→A at 2 h (P-glycoprotein): 26.3 ×10⁻⁶ cm/s; recovery at 2 h (P-glycoprotein; [2]): 91.1%; recovery at 2 h (P-glycoprotein; [3]): 80.8%; recovery at 2 h (P-glycoprotein; [4]): 104%; recovery at 2 h (P-glycoprotein; [5]): 90.8%; P-glycoprotein substrate (experimental conclusion) (P-glycoprotein): not P-glycoprotein substrates |
| CC(OP(=O)(N1CC1)N1CC1)c1cccc2c([N+](=O)[O-])cccc12 (stereo not drawn) [Compound 10] | 0.692 µM |  |
| O=[N+]([O-])c1cccc2c(COP(=O)(N3CC3)N3CC3)cccc12 [Compound 09] | 1.65 µM |  |
| O=[N+]([O-])c1c(C(OP(=O)(N2CC2)N2CC2)C(F)(F)F)ccc2ccccc12 (stereo not drawn) [Compound 05] | 9.02 µM | Anticancer activity compared to the compound of control 2 [1]: obviously worse |
| O=[N+]([O-])c1ccc(COP(=O)(N2CC2)N2CC2)c2ccncc12 [Compound 21] | 0.00717 µM |  |
| CC(OP(=O)(N1CC1)N1CC1)c1ccc2ccccc2c1[N+](=O)[O-] (stereo not drawn) [Compound 04] | 9.28 µM | Anticancer activity compared to the compound of control 2 [1]: obviously worse |
